Measurements: patent publication US20220362340A1, “COMPOSITIONS AND USES THEREOF FOR TREATING IRRADIATION-INDUCED INTESTINAL DAMAGE” (UNIVERSITY OF PITTSBURGH-OF THE COMMONWEALTH SYSTEM OF …, priority 2019, published 2022)
“Also recorded” adds a separate entry of the source.

B1: G-CSF: Granulocyte colony-stimulating factor polypeptide, irradiation mitigator (protein, listed as Homo sapiens)
chain: MAGPATQSPMKLMALQLLLWHSALWTVQEATPLGPASSLPQSFLLKCLEQVRKIQGDGAALQEKLVSECATYKLCHPEELVLLGHSLGIPWAPLSSCPSQALQLAGCLSQLHSGLFLYQGLLQALEGISPELGPTLDTLQLDVADFATTIWQQMEELGMAPALQPTQGAMPAFASAFQRRAGGVLVASHLQSFLEVSYRVLRHLAQP

Legend:
[1] = test system: C57BL/6NTac mice irradiated to 9.25 Gy total body irradiation; test: Survival after 9.25 Gy total body irradiation (TBI); assay type: in vivo, mouse; conditions: 9.25 Gy TBI; for 30 days survival: JP4-039 20 mg/kg I.M., G-CSF 4 mg/kg I.P. at 24 h, n=10, irradiated controls 20%; for survival at 30 days after TBI: treatment 24 hrs later, FIG. 7, irradiated control 10%
Source text: Mice and Animal Care. Female C57BL/6NTac (Taconic Biosciences, Wayne, Pa.) and C57BL/6 lgr5+ green fluorescent protein tagged (5-6) lgr5+ mice were housed 5 per cage and fed standard laboratory chow and deionized drinking water according to University of Pittsburgh IACUC regulations.
Irradiation. Total body irradiation was delivered with a cesium-137 Gamma Cell irradiator with filters removed at a dose rate of […], beam flatness, homogeneity, and analysis of spectrum of gamma ray precise dosimetry were carried out. Mice were irradiated in a plexiglass pie plate that contains 12 sections. Five mice were placed in each pie plate. The mice were not placed in adjacent sections, but had one or two empty sections between mice so that the mice would not shield the other mice in the pie plate. Thermoluminescent (TLD) readings according to published methods. [Steinman J, et al., Improved total- body irradiation survival by delivery of two radiation mitigators that target distinct cell death pathways. Radiat Res 189(1): 68-83, 2018.]
Dose Response Curve of Number of Gavaged Lactobacillus-reuteri, or E. coli Producing IL-22 or IFN-β. Mice were irradiated to 9.25 Gy TBI, which took 13-14 minutes, and were then 24 h later gavaged with 100 μL saline solution containing Lactobacillus reuteri-IL-22, or E. coli-IL-22, or at 48 hrs post irradiation E. coli-IFN-β (based on the known time of requirement for IFN-β by lgr5+ cells at this time). All groups of mice received 100 μL saline, which contained varying numbers of bacteria ranging from 10^9, 10^8, 10^7, to 10^6 bacteria (n=10 animals per group).
Administration of Small Molecule Radiation Mitigator, IL-22 Protein, L. reuteri Lacking IL-22, or Gavaged Fecal Microbiome. As a control for probiotic mitigators, the GS-nitroxide, JP4-039 [Rwigema J -CM, et al., Two strategies for the development of mitochondrial-targeted small molecule radiation damage mitigators. Int J Radiat Oncol Biol Phys 80(3): 860-868, 2011], was prepared and administered according to published methods, I.M. at 20 mg/kg in 50 μL of 30% cyclodextrin aqueous [Epperly M W, et al., Evaluations of different formulations and routes for the delivery of the ionizing radiation mitigation GS-nitroxide (JP4-039). In Vivo 32: 1009-1023, 2018]. Cyclodextrin alone has no radiomitigative effect. […]
10^9 L. reuteri lacking IL-22 was administered in 100 μl/saline. A similar number of bacteria from feces obtained from 30-day survivors of 9.25 Gy TBI was gavaged. Fecal microbiome transplant (FMT) was carried out by delivery by gavage in 100 μL saline; 10^9 bacteria from the feces of 30-day survivors of 9.25 Gy TBI of C57BL/6 female mice.
C57BL/6NTac mice were irradiated to 9.25 Gy total body irradiation and gavaged with Lactobacillus reuteri-IL-22 or Lactobacillus reuteri harboring the empty vector control. […]
To determine whether successful radiation mitigation correlated with changes in the intestinal microbiome, groups of mice received 9.25 Gy total body irradiation (TBI) and subgroups treated with the small molecule radiation mitigator, JP4-039 (20 mg/kg in 50 microliters of 30% 2-hydroxypropyl-β-cyclodextrin I.M.), G-CSF (4 mg/kg I.P.), or both mitigators at 24 h after TBI. Fecal pellets were analyzed pre-irradiation, and at days 1, 3, 5, 7, 10, 14, 21, and 30 after irradiation. […]

IL-22 = test: Intestinal level of IL-22 after TBI; assay type: in vivo, mouse; conditions: 9.25 Gy TBI; treatment at 24 h; FIG. 17A

Molecule | 30 days survival [1] [%] | survival at 30 days after TBI [1] [%] | intestinal level of IL-22 after TBI (IL-22) | survival compared to irradiation only mice ([1]; treatment 24 hr after, IL-22 protein 0.1 mg/kg I.M., FIG. 9)
CC(C)C[C@@H](/C=C/CC(=O)NC1CC(C)(C)N([O])C(C)(C)C1)NC(=O)OC(C)(C)C [JP4-039] | 50 | 70 | restored IL-22 levels | 
IL-22 protein: recombinant IL-22 protein injected as control |  | 40 |  | significantly increased survival; also recorded: significantly improved survival
B1 | 70 |  |  | 
